Read-outs that look alike come from different tables or passages of the source.
Legend:
IL-6 = IL-6 assay (ELISA) in Ad5-wt-ER infected HAECT-1 cells (IL-1β induced); type: cell-based, human; conditions: Homo sapiens; for IC50: HAECT1; for Emax: HAECT1, relative to maximal inhibition observed with E2, read-out: IL-6 Efficacy
Protocol: (§1) After four hours, cells were washed with EBM-BSA and incubated overnight in the same medium. […] After two hours, cells were washed and incubated at 34° C. for 1 hour. […] Control (no ER infection) cells were processed as above without Ad5-wt-hERα virus infection. […] Cells were subsequently washed with 300 μl of Dulbecco's phosphate buffered saline and lysed in 50 μl of Cell Culture Lysis Reagent (Promega). Luciferase was determined on a Wallac Victor^2 Luminometer (Gaithersburg, Md.) using 10 μl of lysate and mixing with 100 lμof Promega Luciferase Assay reagent. […] For IC50 and EC50 calculations, mean IL-6, luciferase or CK values versus log10 of the compound concentration were fitted to a four parameter logistic equation. The IC50/EC50 value, ‘Hill slope’, upper and lower limits of the curve were iteratively estimated.

creatine kinase = experiment: Creatine kinase assay in Ad5-wt-ER infected HAECT-1 cells; type: cell-based, human; conditions: for EC50 / Emax: Homo sapiens; for EC50: HAECT1, CK stimulation, N/O = activity not observed at concentrations tested, read-out: CK IC50; for Emax: HAECT1, relative to maximal stimulation observed with E2, read-out: CK Efficacy; for CK Efficacy: relative to maximal stimulation observed with E2
Protocol: as §1

ER/Nf-kB = experiment: ER/NF-κB luciferase reporter assay in Ad5-wt-ER infected HAECT-1 cells (IL-1β induced); type: cell-based, human; conditions: for ER/Nf-kB Efficacy: relative to maximal inhibition observed with E2
Protocol: as §1

Row | SMILES | IC50 (IL-6) | melting point | Emax (IL-6) | ER/Nf-kB Efficacy (ER/Nf-kB) | also measured
1 | CC[C@H]1c2cccn2-c2c(cc(F)c(F)c2F)N1S(=O)(=O)c1ccc(O)cc1 [97 (S), 4-{[(4S)-4-ethyl-7,8,9-trifluoropyrrolo[1,2-a]quinoxalin-5(4H)-yl]sulfonyl}phenol] | 9 nM | 155 to 156 °C | 134% |  | EC50 (creatine kinase): 31 nM; Emax (creatine kinase): 37%
2 | CC[C@H]1c2ccc(C#N)n2-c2cc(F)c(F)cc2N1S(=O)(=O)c1ccc(O)cc1 [101 (S), (4S)-4-ethyl-7,8-difluoro-5-[(4-hydroxyphenyl)sulfonyl]-4,5-dihydropyrrolo[1,2-a]quinoxaline-1-carbonitrile] | 424 nM | 191 to 192 °C | 131% |  | EC50 (creatine kinase): 91 nM; Emax (creatine kinase): 30%
3 | CC[C@@H]1c2cccn2-c2cc(F)c(F)cc2N1S(=O)(=O)c1ccc(O)c(C)c1 [102 (R), 4-{[(4R)-4-ethyl-7,8-difluoropyrrolo[1,2-a]quinoxalin-5(4H)-yl]sulfonyl}-2-methylphenol] | 448 nM | 160 to 162 °C | 117% |  | EC50 (creatine kinase): 1770 nM; Emax (creatine kinase): 31%
4 | CCC1c2ccc(C=O)n2-c2ccc(F)cc2N1S(=O)(=O)c1ccc(O)c(C)c1 (centres unmarked) [Example 25, 4-ethyl-7-fluoro-5-[(4-hydroxy-3-methylphenyl)sulfonyl]-4,5-dihydropyrrolo[1,2-a]quinoxaline-1-carboxaldehyde] |  | 192 to 194 °C |  |  | 
5 | CCC1c2cccn2-c2ccc(Br)cc2N1S(=O)(=O)c1ccc(O)c(C)c1 (centres unmarked) [Example 46, 4-[(7-bromo-4-ethylpyrrolo[1,2-a]quinoxalin-5-(4H)-yl)sulfonyl]-2-methylphenol] |  |  |  | 108% | IC50 (ER/Nf-kB): 62 nM; CK Efficacy (creatine kinase): 43%
6 | CC1c2cccn2-c2ccc(F)cc2N1S(=O)(=O)c1ccc(O)cc1 (centres unmarked) [Example 49, 4-[(7-fluoro-4-methylpyrrolo[1,2-a]quinoxalin-5-(4H)-yl)sulfonyl]phenol] |  |  |  | 85% | IC50 (ER/Nf-kB): 67 nM; CK Efficacy (creatine kinase): 19%
7 | CCC1c2cccn2-c2ccc(C(F)(F)F)cc2N1S(=O)(=O)c1ccc(O)c(C)c1 (centres unmarked) [Example 58, 4-{[4-ethyl-7-(trifluoromethyl)pyrrolo[1,2-a]quinoxalin-5-(4H)-yl]sulfonyl}-2-methylphenol] |  |  |  | 132% | IC50 (ER/Nf-kB): 85 nM; CK Efficacy (creatine kinase): 42%
8 | CCC1c2cccn2-c2ccc(C(F)(F)F)cc2N1S(=O)(=O)c1ccc(O)c(Cl)c1 (centres unmarked) [Example 61, 2-chloro-4-{[4-ethyl-7-(trifluoromethyl)pyrrolo[1,2-a]quinoxalin-5-(4H)-yl]sulfonyl}phenol] |  |  |  | 69% | IC50 (ER/Nf-kB): 10000 nM; CK Efficacy (creatine kinase): 15%
9 | CCC1c2cccn2-c2ccc(Cl)cc2N1S(=O)(=O)c1ccc(O)c(C)c1 (centres unmarked) [Example 68A, 4-[(7-chloro-4-ethylpyrrolo[1,2-a]quinoxalin-5-(4H)-yl)sulfonyl]-2-methylphenol] |  |  |  | 105% | IC50 (ER/Nf-kB): 93 nM; CK Efficacy (creatine kinase): 49%
10 | CCOC(=O)Oc1ccc(S(=O)(=O)N2c3ccc(Cl)cc3-n3cccc3C2CC)cc1 (centres unmarked) [Example 70, 4-[(8-chloro-4-ethylpyrrolo[1,2-a]quinoxalin-5-(4H)-yl)sulfonyl]phenyl ethyl carbonate] |  |  |  | 98% | IC50 (ER/Nf-kB): 150 nM; CK Efficacy (creatine kinase): 45%
11 | CCC1c2cccn2-c2cc(Cl)ccc2N1S(=O)(=O)c1ccc(O)cc1 (centres unmarked) [Example 71, 4-[(8-chloro-4-ethylpyrrolo[1,2-a]quinoxalin-5-(4H)-yl)sulfonyl]phenol] |  |  |  | 101% | IC50 (ER/Nf-kB): 175 nM; CK Efficacy (creatine kinase): 34%
12 | CCC1c2cccn2-c2cc(OC)c(F)cc2N1S(=O)(=O)c1ccc(O)cc1 (centres unmarked) [Example 75, 4-[(4-ethyl-7-fluoro-8-methoxypyrrolo[1,2-a]quinoxalin-5-(4H)-yl)sulfonyl]phenol] |  |  |  | 84% | IC50 (ER/Nf-kB): 36 nM; CK Efficacy (creatine kinase): 46%
13 | CCC1c2ccc(C#N)n2-c2ccc(Br)cc2N1S(=O)(=O)c1ccc(O)cc1 (centres unmarked) [Example 80, 7-bromo-4-ethyl-5-[(4-hydroxyphenyl)sulfonyl]-4,5-dihydropyrrolo[1,2-a]quinoxaline-1-carbonitrile] | 444 nM | 190 to 192 °C | 103% |  | 
14 | CCC1c2ccc(C#N)n2-c2cc(F)c(F)cc2N1S(=O)(=O)c1cccc(O)c1 (centres unmarked) [Example 85, 4-ethyl-7,8-difluoro-5-[(3-hydroxyphenyl)sulfonyl]-4,5-dihydropyrrolo[1,2-a]quinoxaline-1-carbonitrile] | 696 nM | 179 to 182 °C | 112% |  | 
15 | CCC1c2ccc(C#N)n2-c2cc(F)c(F)cc2N1S(=O)(=O)c1ccc(O)cc1 (centres unmarked) [Example 93, 4-ethyl-7,8-difluoro-5-[(4-hydroxyphenyl)sulfonyl]-4,5-dihydropyrrolo[1,2-a]quinoxaline-1-carbonitrile] | 299 nM | 205 °C | 105% |  | 
16 | CC[C@@H]1c2ccc(C#N)n2-c2cc(F)c(F)cc2N1S(=O)(=O)c1ccc(O)cc1 [Example 101 (R), (4R)-4-ethyl-7,8-difluoro-5-[(4-hydroxyphenyl)sulfonyl]-4,5-dihydropyrrolo[1,2-a]quinoxaline-1-carbonitrile] |  | 194 to 195 °C |  |  | 
17 | CC[C@H]1c2ccc(C#N)n2-c2cc(F)c(F)cc2N1S(=O)(=O)c1ccc(OS(N)(=O)=O)cc1 [Example 104, 4-{[(4S)-1-cyano-4-ethyl-7,8-difluoropyrrolo[1,2-a]quinoxalin-5(4H)-yl]sulfonyl}phenyl sulfamate] | 178 nM | 196 to 201 °C | 110% |  | 
18 | C[C@]12CC[C@@H]3c4ccc(O)cc4CC[C@H]3[C@@H]1CC[C@@H]2O [Example E2, 17β-estradiol, reference compound] |  |  |  | 100% | IC50 (ER/Nf-kB; Homo sapiens, HAECT1): 1.7 nM; EC50 (creatine kinase): 5.8 nM; Emax (creatine kinase): 100%

Further lines, with some results ahead:

Row | IC50 (IL-6) | melting point | SMILES | Emax (IL-6) | ER/Nf-kB Efficacy (ER/Nf-kB) | also measured
19 | 8.4 nM | 161 to 163 °C | CC[C@H]1c2cccn2-c2cc(F)c(F)cc2N1S(=O)(=O)c1ccc(O)c(C)c1 [102 (S), 4-{[(4S)-4-ethyl-7,8-difluoropyrrolo[1,2-a]quinoxalin-5(4H)-yl]sulfonyl}-2-methylphenol] | 161% |  | 
20 | 23 nM | 125 to 129 °C | C[C@@H]1c2cccn2-c2ccc(F)cc2N1C(=O)c1ccc(O)cc1 [123 (R), 4-{[(4R)-7-fluoro-4-methylpyrrolo[1,2-a]quinoxalin-5(4H)-yl]carbonyl}phenol] | 112% |  | EC50 (creatine kinase): 198 nM; Emax (creatine kinase): 27%
21 | 0.4 nM | 213 to 214 °C | CC[C@@H]1c2cccn2-c2ccc(Cl)cc2N1C(=O)c1ccc(O)cc1O [125 (R), 4-{[(4R)-7-chloro-4-ethylpyrrolo[1,2-a]quinoxalin-5(4H)-yl]carbonyl}benzene-1,3-diol] | 120% |  | 
22 | 62 nM | 115 to 116 °C | CC[C@@H]1c2cccn2-c2ccc(F)cc2N1C(=O)c1cccc(O)c1 [127 (R), 3-{[(4R)-4-ethyl-7-fluoropyrrolo[1,2-a]quinoxalin-5(4H)-yl]carbonyl}phenol] | 132% |  | EC50 (creatine kinase): 159 nM; Emax (creatine kinase): 35%
23 |  | 168 to 170 °C (dec.) | CCC1c2ccc(C(N)=O)n2-c2ccc(F)cc2N1S(=O)(=O)c1ccc(O)cc1 (centres unmarked) [Example 36, 4-ethyl-7-fluoro-5-[(4-hydroxyphenyl)sulfonyl]-4,5-dihydropyrrolo[1,2-a]quinoxaline-1-carboxamide] |  |  | 
24 | 1100 nM | 187 to 189 °C | CC[C@@H]1c2cccn2-c2ccc(Br)cc2N1S(=O)(=O)c1ccc(O)cc1 [Example 78, 4-{[(4R)-7-bromo-4-ethylpyrrolo[1,2-a]quinoxalin-5(4H)-yl]sulfonyl}phenol] | 40% |  | 
25 | 51 nM | 176 to 178 °C | CCC1c2cccn2-c2ccc(Br)cc2N1S(=O)(=O)c1cccc(O)c1 (centres unmarked) [Example 82, 3-[(7-bromo-4-ethylpyrrolo[1,2-a]quinoxalin-5(4H)-yl)sulfonyl]phenol] | 114% |  | 
26 | 92 nM | 175 to 176 °C | CCC1c2cccn2-c2c(cc(F)c(F)c2F)N1S(=O)(=O)c1ccc(O)cc1 (centres unmarked) [Example 98, 4-[(4-ethyl-7,8,9-trifluoropyrrolo[1,2-a]quinoxalin-5(4H)-yl)sulfonyl]phenol] | 117% |  | 
27 |  | 153 to 155 °C | CCC1c2cccn2-c2ccc(F)cc2N1C(=O)c1ccc(O)cc1O (centres unmarked) [Example 120, 4-[(4-ethyl-7-fluoropyrrolo[1,2-a]quinoxalin-5(4H)-yl)carbonyl]benzene-1,3-diol] |  |  | 
28 |  | 198 to 201 °C | CCC1c2cccn2-c2ccc(Cl)cc2N1C(=O)c1ccc(O)cc1O (centres unmarked) [Example 124, 4-[(7-chloro-4-ethylpyrrolo[1,2-a]quinoxalin-5(4H)-yl)carbonyl]benzene-1,3-diol] |  |  | 
29 |  | 115 to 117 °C | CCC1c2cccn2-c2ccc(F)cc2N1C(=O)c1cccc(O)c1 (centres unmarked) [Example 126, 3-[(4-ethyl-7-fluoropyrrolo[1,2-a]quinoxalin-5(4H)-yl)carbonyl]phenol] |  |  | 

From US7563793B2, “Pyrrolo[1,2-a]quinoxalin-5-(4H)-yl)sulfonyls and carbonyls and their use as estrogenic agents” (Wyeth, priority 2004, dated 2009)
